Assay [1] addresses T1, SNTG2 PDZ (Homo sapiens, UniProt Q9NY99).
T1 sequence (Q9NY99 73-156 limits assumed): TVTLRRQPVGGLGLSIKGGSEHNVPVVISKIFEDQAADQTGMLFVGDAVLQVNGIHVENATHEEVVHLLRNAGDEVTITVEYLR
Kind of assay: Holdup assay. It counts as binding. The conditions noted are these: composite holdup affinity; 0.00=below quantification threshold; read-out: COMP pKd (converted).

Assay [2] has as its target T1, SNTG2 PDZ. The assay can be described thus: Competitive fluorescence polarization (FP) assay. The conditions noted are these: read-out: pKd FP (converted). It counts as binding.
The next assay concerns the target T2, SYNJ2BP PDZ (Homo sapiens, UniProt P57105).
T2 sequence (P57105 13-100 limits assumed): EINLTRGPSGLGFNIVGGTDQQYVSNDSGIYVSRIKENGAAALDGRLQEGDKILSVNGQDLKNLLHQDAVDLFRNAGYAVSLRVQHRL
Kind of assay: Holdup assay. It is filed as binding. The conditions noted are these: composite holdup affinity; 0.00=below quantification threshold; read-out: COMP pKd (converted).

In a further assay the test system is HeLa cell extract preys. The assay can be described thus: PDZ-AP-MS, biotinylated MBP-PDZ baits. The conditions noted are these: PDZ-AP-MS fold change of the PBM-protein prey. It is filed as binding, human. Summed up: (§1)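 Biotinylated His6-AviTag-MBP-PDZ baits, or MBP alone, saturated streptavidin resin and were then biotin-blocked. Each was incubated with 1 mg cell lysate for 2 h at 4 °C, washed, and eluted in 8 M urea. Eluates were digested with Lys-C/trypsin, run by nanoLC-MS/MS on an Orbitrap Elite (top20 CID) and searched against human SwissProt.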

Another assay relates to HaCat cell extract preys. Kind of assay: PDZ-AP-MS, biotinylated MBP-PDZ baits. It is filed as binding, human. Summed up: as §1
In assay [3] the test system is Jurkat cell extract preys. The assay can be described thus: PDZ-AP-MS, biotinylated MBP-PDZ baits. It counts as binding, human. An outline of the steps:
as §1

The next assay concerns the target DLG1_1/2. The conditions noted are these: SPR; ref Kim et al 1998; cited from earlier work. An excerpt:
Supplement 41467_2022_33018_MOESM4_ESM.xlsx, sheet "reference DMI interactome" | column: Affinity (mM); pKd, measured in literature

[4] abbreviates: PDZ-AP-MS fold change of the PBM-protein prey, bait MBP-PDZ DLG1_1.
The mark [5] stands for this setting: PDZ-AP-MS fold change of the PBM-protein prey, bait MBP-PDZ DLG1_2.
The mark [6] stands for this setting: PDZ-AP-MS fold change of the PBM-protein prey, bait MBP-PDZ SCRIB_1.
The mark [7] stands for this setting: PDZ-AP-MS fold change of the PBM-protein prey, bait MBP-PDZ SCRIB_2.
Setting [8] is: PDZ-AP-MS fold change of the PBM-protein prey, bait MBP-PDZ SNX27.
[9] abbreviates: PDZ-AP-MS fold change of the PBM-protein prey, bait MBP-PDZ TX1BP3.
The mark [10] stands for this setting: bait DLG1_1 PDZ, fold change of prey.
[11] abbreviates: bait DLG1_2 PDZ, fold change of prey.
Setting [12] is: bait SCRIB_1 PDZ, fold change of prey.
Setting [13] is: bait SCRIB_2 PDZ, fold change of prey.
Setting [14] is: bait SNX27 PDZ, fold change of prey.
[15] abbreviates: bait TX1BP3 PDZ, fold change of prey.

Here are results for 4 compounds from publication PMC9482650, “Quantitative fragmentomics allow affinity mapping of interactomes” (Nature Communications, 2022).

Square brackets hold non-standard residues; d marks the D form. Ends that are not written are not given here. Peptide text beside a SMILES is read from it. pS = N[C@@H](COP(=O)(O)O)C(=O)O

For `CC[C@H](C)[C@H](NC(=O)[C@H](CCC(N)=O)NC(=O)[C@@H](NC(=O)[C@H](Cc1c[nH]cn1)NC(=O)[C@H](CCC(N)=O)NC(=O)[C@H](CC(=O)O)NC(=O)[C@H](CCC(=O)O)NC(=O)[C@H](CC(=O)O)NC(=O)CCC(=O)NCCCOCCOCCOCCCNC(=O)CCCC[C@@H]1SC[C@@H]2NC(=O)N[C@@H]21)[C@@H](C)O)C(=O)N[C@H](C(=O)N[C@@H](CCCCNC(C)=O)C(=O)N[C@H](C(=O)O)C(C)C)[C@@H](C)O` [PTEN_Ac], the figures for the Kd on SNTG2 PDZ [1] and at SNTG2 PDZ [2] were 166 µM and 377 µM, respectively.
As to `CC(C)C[C@H](NC(=O)[C@@H](NC(=O)[C@@H](NC(=O)[C@H](COP(=O)(O)O)NC(=O)[C@@H]1CCCN1C(=O)[C@H](CC(C)C)NC(=O)[C@H](CCCCN)NC(=O)[C@H](CCCNC(=N)N)NC(=O)[C@@H](NC(=O)[C@@H](N)CCCNC(=N)N)C(C)C)[C@@H](C)O)[C@@H](C)O)C(=O)O` [p-3 phosphorylated RPS6KA1] (H-RVRKLP[pS]TTL-OH), the Kd at SYNJ2BP PDZ is 33.1 µM.
As to RVRKLPSTTL [RPS6KA1], on SYNJ2BP PDZ, the Kd was 151 µM.
For the compound SSLQSLETSV-OH [ATP2B4], the “Fold changes, HeLa, DLG1_1” value in the assay with HeLa cell extract preys (bait MBP-PDZ DLG1_1) amounted to 1.011. Moreover, the “Fold changes, HeLa, DLG1_2” value in the assay on HeLa cell extract preys (bait MBP-PDZ DLG1_2) is on record as 4.653. Further, the “Fold changes, HeLa, SCRIB_1” value in the assay on HeLa cell extract preys (bait MBP-PDZ SCRIB_1) was 16.1327. For the same compound, in the assay on HeLa cell extract preys (bait MBP-PDZ SCRIB_2), the “Fold changes, HeLa, SCRIB_2” value came out at 1.595. The “Fold changes, HeLa, SNX27” value in the assay with HeLa cell extract preys (bait MBP-PDZ SNX27) turned out to be 14.9763. Besides, the “Fold changes, HeLa, TX1BP3” value in the assay on HeLa cell extract preys (bait MBP-PDZ TX1BP3) is 0.7931. For the same compound, the “Fold changes, HaCat, DLG1_1” value with HaCat cell extract preys (setting [4]) turned out to be 6.858. Besides, the “Fold changes, HaCat, DLG1_2” value with HaCat cell extract preys (setting [5]) is on record as 9.323. In addition, the “Fold changes, HaCat, SCRIB_1” value in the assay on HaCat cell extract preys (setting [6]) is 1.193. In addition, the “Fold changes, HaCat, SCRIB_2” value in the assay on HaCat cell extract preys (setting [7]) is 2.996. Besides, the “Fold changes, HaCat, SNX27” value in the assay on HaCat cell extract preys (setting [8]) came out at 25.0597. Moreover, the “Fold changes, HaCat, TX1BP3” value in the assay on HaCat cell extract preys (setting [9]) came to 1.007. For the same compound, the entries for the “Ratio DLG1_1/MBP” value (in the assay with HaCat cell extract preys (setting [10]); in assay [3] (setting [10])) were 6.858 and 3.92, respectively. The “Ratio DLG1_2/MBP” value in the assay on HaCat cell extract preys (setting [11]) was 9.323; in assay [3] (setting [11]) it was 17.9481. Further, the “Ratio SCRIB_1/MBP” value in the assay with HaCat cell extract preys (setting [12]) is 1.193; in assay [3] (setting [12]), 13.9686. The results for the “Ratio SCRIB_2/MBP” value (with HaCat cell extract preys (setting [13]); in assay [3] (setting [13])) were 2.996 and 1.428, respectively. The “Ratio SNX27/MBP” value in the assay with HaCat cell extract preys (setting [14]) is recorded as 25.0597; in assay [3] (setting [14]), 34.2386. Besides, the “Ratio TX1BP3/MBP” value in the assay on HaCat cell extract preys (setting [15]) was 1.007; in assay [3] (setting [15]), 1.643. The “Fold changes, Jurkat, DLG1_1” value in assay [3] (setting [4]) is given as 3.92. The “Fold changes, Jurkat, DLG1_2” value in assay [3] (setting [5]) was found to be 17.9481. Also, the “Fold changes, Jurkat, SCRIB_1” value in assay [3] (setting [6]) was found to be 13.9686. Further, the “Fold changes, Jurkat, SCRIB_2” value in assay [3] (setting [7]) is reported as 1.428. Also, in assay [3] (setting [8]), the “Fold changes, Jurkat, SNX27” value was 34.2386. Moreover, in assay [3] (setting [9]), the “Fold changes, Jurkat, TX1BP3” value is recorded as 1.643. In assay [3] (bait DLG1_2 PDZ vs MBP, enrichment of prey), the “Difference log2” value is given as 4.166. Further, the “pKd, measured in literature” value on DLG1_1/2 is given as 8.785.
